Experimental data from US12285399B2, “Composition comprising bornyl acetate or pharmaceutically acceptable salt thereof as active ingredient for prevention or treatment of stress-related disorder” (UNIVERSITY-INDUSTRY COOPERATION GROUP OF KYUNG HEE …, priority 2019, dated 2025).

Tests used:
c-Fos protein = test: Western blot of c-Fos protein in brain (hippocampus and amygdala) of CRS model; assay type: in vivo, C57BL/6NTac mice; settings: CRS+BA group
Protocol: In order to confirm the antidepressant efficacy of bornyl acetate on the animal model of stress depression, an animal model of depression induced by chronic restrained stress (CRS) was prepared. Specifically, the animal model, 8-week-old male C57BL/6NTac mice after birth (Narabiotechnology, Korea; weight 22-24 g) had been stabilized for 1 week. A 50 ml conical tube (SPL Life sciences, Pocheon, Korea) was punched to make a hole, thereby making a restraint frame. The mice were put in the frame and restrained for 2 hours every day for 14 days. After restraint, the mice were allowed to freely ingest water and food in the home cage. The hippocampus and amygdala of the brain were excised. They were added to 200 μl of a protein lysis buffer (10 mM Tris, 0.5 mM EDTA, 0.25 M sucrose), and proteins were isolated using a grinder. The isolated protein was quantified by the Bradford method (Bio-rad, USA) using bovine serum albumin (BSA, Sigma, USA), and then 25 μg of the protein was separated by 10% sodium dodecyl sulfate-polyacrylamide gel electrophoresis (SDS-PAGE) and transferred to polyvinylidene difluoride (PVDF) membrane (Gendepot, UK). PVDF membranes were blocked in 5% skimmed milk (BD, USA) for 1 hour. […] Identification and quantitative analysis of proteins were analyzed using an imaging device ChemiDoc XRS+ (Bio-Rad). […]

iNOS mRNA = test: RT-PCR of iNOS mRNA in brain (hippocampus and amygdala) of CRS model; assay type: in vivo, C57BL/6NTac mice; settings: CRS+BA group, 100 mg/kg oral
Protocol: In order to confirm the antidepressant efficacy of bornyl acetate on the animal model of stress depression, an animal model of depression induced by chronic restrained stress (CRS) was prepared. Specifically, the animal model, 8-week-old male C57BL/6NTac mice after birth (Narabiotechnology, Korea; weight 22-24 g) had been stabilized for 1 week. A 50 ml conical tube (SPL Life sciences, Pocheon, Korea) was punched to make a hole, thereby making a restraint frame. The mice were put in the frame and restrained for 2 hours every day for 14 days. After restraint, the mice were allowed to freely ingest water and food in the home cage.
In order to confirm the inhibitory effect of bornyl acetate on the expression of inflammatory mediators in an animal model of depression induced by chronic restrained stress, mRNA expression was confirmed using reverse transcription-polymerase chain reaction (RT-PCR). Bornyl acetate (100 mg/kg) was orally administered 1 hour before inducing the restrained stress every day. […]
Western blot and RT-PCR analysis were performed in the brain (hippocampus and amygdala) of an animal model of chronic restrained stress (CRS)-induced stress depression to exam and quantify the activation level of inflammatory mediators, thereby verifying the modulating effect of bornyl acetate on the inflammatory response in the brain. […]

CC(=O)OC1CC2CCC1(C)C2(C)C (stereo not shown) [BA, bornyl acetate]
significantly inhibited: protein expression of c-Fos (CRS-induced increase) (c-Fos protein; amygdala) | protein expression of c-Fos (CRS-induced increase) (c-Fos protein; hippocampus) | mRNA expression of iNOS (CRS-induced increase) (iNOS mRNA; amygdala) | mRNA expression of iNOS (CRS-induced increase) (iNOS mRNA; hippocampus)
